Where “and” joins values, the source holds several entries; their conditions need not be identical. Equal entries are not always repeated.
Experiments:
[1] = system: Rattus norvegicus
[2] = system: Canidae; details: for NOAEL: chronic, oral, diet, M/F, Beagle
[3] = subchronic, duration: 13 weeks, oral, gavage, M/F, Crj:CD, no effects
[4] = subchronic, duration: 90 days, oral, diet, M/F, Wistar, no effects
[5] = subchronic, duration: 90 days, oral, gavage, M/F, body weight

NCCS(=O)(=O)O [l-Taurine] gave an NOAEL [1, 3] of 1000 mg/kg-day.
For CCCC(C)=O [2-Pentanone], the NOAEL ([1]; subchronic, duration: 13 weeks, oral, gavage, M/F, organ weight) was 20 mg/kg-day.
In the case of COC(=O)[C@H](Cc1ccccc1)NC(=O)[C@H](CC(=O)O)NCCC(C)(C)C [Neotame], the NOAEL ([2]; duration: 52 weeks, clinical chemistry) is reported as 200 mg/kg-day.
Compound CCC(=O)c1ccc[nH]1 [2-Propionylpyrrole] has an NOAEL ([1]; subchronic, duration: 90 days, oral, M/F, Sprague-Dawley, histopathology: neoplastic) of 0.048 mg/kg-day and an NOAEL ([1]; subchronic, duration: 90 days, oral, gavage, M, hematological) of 48 mg/kg-day.
In the case of CCCCCCCCCCCC(=O)N[C@@H](CCCN=C(N)N)C(=O)OCC [N alpha-Lauroyl-L-arginine ethyl ester], the NOAEL ([1]; subchronic, duration: 13 weeks, oral, M/F, Sprague-Dawley, clinical chemistry) is reported as 47 mg/kg-day.
In the case of CCC=C1OC(=O)c2ccccc21 [3-Propylidenephthalide], the NOAEL ([1]; subchronic, duration: 90 days, oral) is reported as 5.42 mg/kg-day.
With Cc1ccc(OCC(=O)N(Cc2cccs2)c2ccn[nH]2)cc1 the NOAEL ([1]; reproduction developmental, oral, gavage, F, no effects) was 1000 mg/kg-day and the NOAEL ([1]; subchronic, duration: 13 weeks, oral, gavage, M/F, no effects) was 100 mg/kg-day.
CC1=C(C=O)C(C)(C)CC=C1 [Safranal] was tested, and the NOEL ([1]; subchronic, duration: 90 days) was 10 mg/kg-day, the LEL ([1]; subchronic, duration: 90 days, oral, gavage, F, no effects) was 120 mg/kg-day and the LEL ([2]; subchronic, duration: 90 days, Dog Other, no effects) was 120 mg/kg-day.
SCCCCS [1,4-Butanedithiol] was tested, and the NOAEL ([1]; subchronic, duration: 90 days, oral, diet, M/F, Sprague-Dawley, no effects) was 0.703 mg/kg-day (5×) and 0.705 mg/kg-day (5×).
Compound OCc1c[nH]c2ccccc12 [Indole-3-carbinol] has an NOAEL ([1]; chronic, duration: 37 weeks, oral, diet, M, no effects) of 50 mg/kg-day.
Compound SCc1ccccn1 [2-Pyridinemethanethiol] has an NOAEL ([1]; subchronic, duration: 90 days, oral, diet) of 3.4 mg/kg-day.
Cc1c(C)c2c(c(C)c1OC(=O)CCC(=O)O)CC[C@@](C)(CCC[C@H](C)CCC[C@H](C)CCCC(C)C)O2 [d-alpha-Tocopheryl succinate] showed an NOAEL ([1]; subchronic, duration: 90 days, clinical chemistry) of 265 mg/kg-day.
Compound CSSSCc1ccco1 [2-[(Methyltrisulfanyl)methyl]furan] has an NOAEL [1, 4] of 0.56 mg/kg-day.
CC(O)c1ccccc1 (stereo not drawn) [alpha-Methylbenzyl alcohol] gave an LOAEL ([1]; subchronic, duration: 13 weeks, oral, gavage) of 93 mg/kg-day.
In the case of CSc1nccnc1C(C)C [Pyrazine, 2-(1-methylethyl)-3-(methylthio)-], the NOAEL ([1]; subchronic, duration: 13 weeks, oral, diet, M/F, no effects) is reported as 1.63 mg/kg-day.
With CC(=O)SCc1ccco1 [S-Furfuryl thioacetate] the NOAEL [1, 5] was 3 mg/kg-day.
C=CO.OCCO was tested, and the NOAEL ([2]; duration: 9 months, no effects) was 800 mg/kg-day.
Cc1occc1SC(C)CC=O (configuration not stated) [3-[(2-Methylfuran-3-yl)sulfanyl]butanal] gave an NOAEL ([1]; subchronic, duration: 90 days, oral, diet, M/F, no effects) of 3.76 mg/kg-day.
With CCOC(=O)c1ccccc1O [Ethyl salicylate] the NOAEL ([1]; chronic, duration: 2 years, oral, growth) was 50 mg/kg-day.
Compound Cc1cccc(C)c1N(Cn1cccn1)C(=O)CCl [Metazachlor] has an NOAEL ([1]; chronic, duration: 2 years, organ weight) of 8.5 mg/kg-day, an NOAEL ([1]; developmental, development) of 50 mg/kg-day and an NOAEL ([1]; subchronic, duration: 90 days, oral, organ weight) of 21 mg/kg-day.
Compound O=C(O)c1ccc(C(=O)O)o1 [2,5-Furandicarboxylic acid] has an NOAEL ([1]; subchronic, duration: 90 days, oral, gavage, M/F, Wistar, body weight) of 300 mg/kg-day.
O=C1CCc2ccccc2O1 [3,4-Dihydrocoumarin] gave an NOAEL ([1]; chronic, duration: 2 years, oral, gavage) of 300 mg/kg-day, an NOAEL ([1]; subchronic, duration: 13 weeks) of 150 mg/kg-day and an NOAEL ([1]; subchronic, duration: 13 weeks, hematological) of 150 mg/kg-day.
Work on CSSc1cc(C)oc1C [2,5-Dimethyl-3-(methyldisulfanyl)furan] yielded an NOAEL [1, 4] of 5 mg/kg-day.
In the case of NCCCCN [Putrescine], the LD50 ([1]; acute, oral, F, mortality) is reported as 463 mg/kg.
CCNC(=O)C1CC(C)CCC1C(C)C (configuration not stated) [N-Ethyl-2-(isopropyl)-5-methylcyclohexanecarboxamide] gave an NOEL ([1]; short-term, duration: 28 days, oral, gavage, M/F, Crj:CD) of 8 mg/kg-day.
OCCc1ccc(O)c(O)c1 [3,4-Dihydroxyphenylethanol] gave an NOAEL [1, 5] of 50 mg/kg-day and an NOAEL ([1]; subchronic, duration: 90 days, oral, gavage, Wistar, body weight) of 250 mg/kg-day.
With CC1COC(C)O1 (configuration not stated) [2,4-Dimethyl-1,3-dioxolane] the NOEL ([1]; chronic, duration: 2 years) was 2500 mg/kg-day.
NCCS(=O)(=O)[O-].NCCS(=O)(=O)[O-].[Fe+2] [Iron(II) taurate] was tested, and the NOAEL [1, 3] was 1000 mg/kg-day.
In the case of Cc1noc(C)c1Cn1cc(N2C(=O)CN(Cc3cccc(O)c3)C2=O)cn1, the NOAEL ([1]; subchronic, duration: 13 weeks, oral, diet, no effects) is reported as 100 mg/kg-day.
With CCOC(=O)c1ccc(O)cc1 [Ethylparaben] the NOAEL ([1]; subchronic, duration: 8 weeks, M, Wistar, no effects) was 1040 mg/kg-day.
COc1ccc(C=CC(=O)NCCc2ccc(OC)c(OC)c2)cc1OC was tested, and the NOAEL ([1]; subchronic, duration: 90 days, oral, diet, M/F, Sprague-Dawley, hematological) was 23 mg/kg-day.
C=C=CC(C)C(=O)OCC (configuration not stated) [3,4-Pentadienoic acid, 2-methyl-, ethyl ester] was tested, and the NOAEL ([1]; chronic, duration: 92 days) was 1 mg/kg-day.
CC(/C=C/C=C(C)/C=C/C(=O)[O-])=C\C=C\C=C(C)\C=C\C=C(C)\C=C\C(=O)[O-].[K+].[K+] [Dipotassium 6,6'-diapo-psi,psi-carotenedioate] was tested, and the NOAEL ([1]; subchronic, duration: 13 weeks, oral, diet, M/F, Sprague-Dawley, clinical chemistry) was 30 mg/kg-day.
